How the values were obtained:
[1] = system: rat mammary tumor; experiment: Direct injection into rat mammary tumor (FIG. 12, FIG. 13); format: in vivo
Experimental: The tumor was induced in each rat by the administration of 7,12-dimethylbenz(a)anthracene and allowed to proliferate to the predetermined sized range of 1.5 to 2.5 centimeters in diameter. The selenodiglutathione was injected at a level of 700 micrograms directly into the central region of the tumor mass fifteen times over the course of thirty days.
FIG. 13 illustrates a table comparing the volume changes of three rat mammary cancer tumors injected over time. The curve marked "C" represents the volume increase in a control tumor injected with eluate from the column but with no selenodithiol. Curves "L" and "H" represent cancer tumors injected according to different treatment schedules of selenodiglutathione. The "L" tumor received a dose of selenodiglutathione of 1.46cc of 7×10^-3 M every forty eight hours for twenty eight days while the "H" tumor received a dose of selenodiglutathione of 2.8cc of 7×10^-3 M every ninety six hours for twenty eight days. […] The control tumor, C, continued to increase in volume dramatically.

[2] = system: secondary superficial tumors; experiment: Injection at site distant from the tumor; format: in vivo, rats; details: effective dosages injected at site distant from the tumor
Experimental: It has further been discovered that rats which are injected with effective dosages of GSSeSG at site distant from the tumor will still kill the cancer tumors.

[3] = system: Malignant Mouse Lymphoid Cells; details: intraperitoneal injections, mice previously inoculated with tumor cells, versus untreated control; cited from earlier work
[4] = system: peripheral blood lymphocytes; experiment: Sister Chromatid Exchange (mutagenicity); format: cell-based, human; details: FIG. 2, compared with selenite and selenomethionine
Text: FIG. 2 describes the effect that GSSeSG has with respect to the mutagenicity of three selenium containing, cancer treating agents as a function of their respective concentrations. More particularly, the preferred selenodithiol, GSSeSG is contrasted with two other selenium containing compounds, selenite and selenomethionine in the treatment of peripheral blood lymphocytes, i.e., normal human cells taken from different sections of the body. […] As one in the art is aware, in the technique known as Sister Chromatid Exchange (SCE) the particular nucleotide components which comprise the DNA genetic code cross over to form cell mutations which lead to the birth and growth of rapidly dividing neoplastic cells.

[5] = system: human tumor cell lines; experiment: Cell culture assay (microculture tetrazolium/MTT assay); format: cell-based
Text: The purpose of the cell culture assay is a method for measuring at what concentration of the cancer treating agent will inhibit neoplastic cell division or protein synthesis, and thus cause the death of the neoplastic cells. The particular assay technique is a modification of that described by Mosmann, Jour. of Immunol. Meth., 65, 1983, pp. 55-63. The cell lines used for the in vitro assay are: […]
The plating density of each cell type used in the assay is set forth below: […]
The procedure followed involved adding for each cell type 200 microliters of the cell suspension at the concentration determined above, to each well of a 96-well plate. The plates were allowed to incubate for twenty four hours at 37° C. and humidified in the presence of a 5% CO2 atmosphere, whereupon 20 microliters of GSSeSG concentrations ranging from 10^-8 M to 10^-4 M were added to the wells located on the plate. A variety of concentrations of cycloheximide and adriamycin were utilized as a control. The resulting plates were incubated for six days at 37° C., humidified in a 5% CO2 atmosphere and on the final day of the assay, 20 μl were added to each well of [MTT 3-(4,5-dimethylthiazol-2-yl)-2,5-diphenyl tetrazolium bromide], obtained from Sigma Cat #M2128. The MTT is prepared by combining 5mg/ml of a phosphate buffered saline (PBS) solution. […] Upon completion, the optical density of each well was read on an elisa plate reader set at 570nm (test sample) and 630nm (for reference).
FIGS. 4 through 11 provide comparisons of the effects at increasing concentrations of adriamycin and GSSeSG as measured by variations in optical density of various cell solutions. […] Variations in optical density, measured by a spectrophotometer, are indicative of the level of cellular activity. […]

[6] = system: DMBA (7,12-dimethylbenz(a)anthracene) induced tumors; experiment: DMBA-induced tumors in rats, injection of agents (Table 1, FIG. 3); format: in vivo
Text: The Table contrasts the results obtained by the desired dosage with the results obtained from four other groups of ten rats; the rats in each group being inoculated with cancer immunotoxins in differing dosages of both GSSeSG, retinol (HPR) and mixtures of each, as well as a control sample of […] which were not administered with cancer treating agents. All one hundred rats were inoculated with DMBA (7,12-dimethylbenz(a)anthracene) so as to induce cancer cell formation, which was then allowed to form tumors over a period of two months prior to testing. […] Thus, Table 1 clearly illustrates both the effectiveness of GSSeSG when utilized in the desired range of proportions and also the fact that even relatively small variations in excess of the crisis zone in its administration will cause severe damage to the host subject, while the proper range of dosages is substantially non-toxic to the treated host.

[7] = biological target: T1, elongation factor 2 (EF-2) (Rattus norvegicus, UniProt P05197); details: cell-free system derived from rats; cited from earlier work
T1 construct: in a cell-free system derived solely from rats

[8] = biological target: EF-2 (Rattus norvegicus, UniProt P05197); details: in vitro amino acid incorporation; cited from earlier work
[9] = system: DMBA-induced mammary tumorigenesis; details: cited from earlier work
[10] = system: Human Breast Cancer Cells; details: parenteral administration, mice; cited from earlier work
[11] = system: DU-145 Human Prostate Carcinoma Cells; details: in vitro; cited from earlier work
[12] = 1 μg per gram of rat body weight
[13] = retinol alone or GSSeSG mixed with retinol, groups of ten rats

N[C@@H](CCC(=O)N[C@@H](CS[Se]SC[C@H](NC(=O)CC[C@H](N)C(=O)O)C(=O)NCC(=O)O)C(=O)NCC(=O)O)C(=O)O [GSSeSG, selenodiglutathione]
tumor volume change, "L" tumor ([1]; 1.46cc of 7×10^-3 M every forty eight hours for twenty eight days, FIG. 13): stopped growing
tumor volume change, "H" tumor ([1]; 2.8cc of 7×10^-3 M every ninety six hours for twenty eight days, FIG. 13): decreased in volume to a level significantly below the initial volume
detrimental effect to the animal ([1]; 700 micrograms into central region of tumor, fifteen times over thirty days): without any detrimental effect
tumor size ([1]; 700 micrograms into central region of tumor, fifteen times over thirty days, FIG. 12): decreased dramatically
effect on tumors distant from the point of injection [2]: disappearance of secondary superficial tumors
life span of the animals [3]: increased the life span
tumor growth [3]: inhibited the tumor growth
number of Sister Chromatid Exchanges (inducible mutation) [4]: low number
concentration up to which neoplastic cell division increases ([5]; FIG. 1): up to 10^-6 M
concentration at which neoplastic cells survive (purple solution obtained) ([5]; MTT, six days incubation): less than 10^-6 M
concentration inhibiting neoplastic cell division or protein synthesis (purple solution not obtained) ([5]; MTT, six days incubation): at least 10^-5 M
effect on cancer cells [6, 12]: substantial elimination of the cancer cells
harm to the rats as indicated by bodyweight [6, 12]: substantially no harm to the rats
mortality of rats ([6]; 2 μg of GSSeSG per gram of bodyweight, ten rats, seventy nine days): all but one of these specimens are dead
effectiveness in inhibiting protein synthesis versus sodium selenite or oxidized glutathione [7]: substantially more effective

CC1=C(/C=C/C(C)=C/C=C/C(C)=C/CO)C(C)(C)CCC1 [retinol, reference compound]
damage to the rats (bodyweight column) [6, 13]: severe damage to the rats
effect on cancer [6, 13]: effective in arresting the cancer

O=[Se](O)O [sodium selenite]
concentration that can inhibit EF-2 [8]: 11 µM
tumorigenesis, high fat fed animals ([9]; high fat fed rats): did not respond as favorably
tumorigenesis, low fat diets ([9]; rats on low fat diets): decrease tumorigenesis
development of cancerous tumors [10]: completely inhibits
growth of human prostate carcinoma cells [11]: inhibits the growth

— patent publication US5104852A, “Method for the inhibition of the proliferation of cancer cells in a tumor sensitive to treatment with a selenodithiol by the injection into the tumor of a selenodithiol such as selenodiglutathione” (The Ohio State University, priority 1991, dated 1992)
